Results from ChEMBL document CHEMBL3526058, “Investigating the enteroenteric recirculation of apixaban, a factor Xa inhibitor: administration of activated charcoal to bile duct-cannulated rats and dogs receiving an intravenous dose and use of drug transporter knockout rats” (Drug Metab Dispos, 2013).

Key:
[1] = AUC (0 to infinity) in P-gp-knockout Sprague-Dawley rat at 2 mg/kg, iv; type: ADME, organism-based; set-up: time infinity, dose 2 mg/kg, route intravenous; conditions: plasma
[2] = Half life in P-gp-knockout Sprague-Dawley rat at 2 mg/kg, iv; type: ADME, organism-based; set-up: dose 2 mg/kg, route intravenous; conditions: in vivo
Rattus norvegicus [3] = assay: Metabolism and biliary clearance in wild-type bile duct-cannulated Sprague-Dawley rat at 2 mg/kg, iv relative to total clearance; type: ADME, organism-based; set-up: dose 2 mg/kg, route intravenous; conditions: in vivo
[4] = Half life in wild-type bile duct-cannulated Sprague-Dawley rat at 2 mg/kg, iv administered 0.125 hr post GF-120918 treatment; type: ADME, organism-based; set-up: dose 2 mg/kg, route intravenous; conditions: in vivo, with GF-120918
[5] = Volume of distribution at steady state in wild-type bile duct-cannulated Sprague-Dawley rat at 2 mg/kg, iv administered 0.125 hr post GF-120918 treatment; type: ADME, organism-based; set-up: dose 2 mg/kg, route intravenous; conditions: in vivo, with GF-120918, read-out: Vdss
Rattus norvegicus [6] = assay: Intestinal clearance in P-gp-knockout Sprague-Dawley rat at 2 mg/kg, iv; type: ADME, organism-based; set-up: dose 2 mg/kg, route intravenous; conditions: in vivo
Rattus norvegicus [7] = assay: Intestinal clearance in wild-type bile duct-cannulated Sprague-Dawley rat at 2 mg/kg, iv administered 0.125 hr post GF-120918 treatment relative to total clearance; type: ADME, organism-based; set-up: dose 2 mg/kg, route intravenous; conditions: in vivo
[8] = Renal clearance in wild-type 30 mins activated charcoal pre-treated bile duct-cannulated Sprague-Dawley rat at 2 mg/kg, iv followed by activated charcoal administration 5 to 180 mins post compound dosing; type: ADME, organism-based, Kidney; set-up: dose 2 mg/kg, route intravenous; conditions: in vivo
Rattus norvegicus [9] = assay: Metabolism and biliary clearance in wild-type 30 mins activated charcoal pre-treated bile duct-cannulated Sprague-Dawley rat at 2 mg/kg, iv followed by activated charcoal administration 5 to 180 mins post compound dosing; type: ADME, organism-based; set-up: dose 2 mg/kg, route intravenous; conditions: in vivo
Rattus norvegicus [10] = assay: Renal clearance in wild-type 30 mins activated charcoal pre-treated bile duct-cannulated Sprague-Dawley rat at 2 mg/kg, iv followed by activated charcoal administration 5 to 180 mins post compound dosing relative to total clearance; type: ADME, organism-based, Kidney; set-up: dose 2 mg/kg, route intravenous; conditions: in vivo
Rattus norvegicus [11] = assay: Metabolism and biliary clearance in P-gp-knockout Sprague-Dawley rat at 2 mg/kg, iv relative to total clearance; type: ADME, organism-based, Bile; set-up: dose 2 mg/kg, route intravenous; conditions: in vivo
Canis familiaris [12] = assay: AUC (0 to infinity) in bile duct-cannulated beagle dog at 1 mg/kg, iv administered as 5 mins infusion; type: ADME, organism-based, Canis lupus familiaris; set-up: time infinity, dose 1 mg/kg, route intravenous; conditions: in vivo
Canis familiaris [13] = assay: Clearance in bile duct-cannulated beagle dog at 1 mg/kg, iv administered as 5 mins infusion; type: ADME, organism-based, Canis lupus familiaris; set-up: dose 1 mg/kg, route intravenous; conditions: in vivo
Canis familiaris [14] = assay: AUC (0 to infinity) in bile duct-cannulated beagle dog at 1 mg/kg, iv administered as 5 mins infusion followed by activated charcoal administration 10 to 420 mins post compound dosing; type: ADME, organism-based, Canis lupus familiaris; set-up: time infinity, dose 1 mg/kg, route intravenous; conditions: in vivo
[15] = Half life in bile duct-cannulated beagle dog at 1 mg/kg, iv administered as 5 mins infusion followed by activated charcoal administration 10 to 420 mins post compound dosing; type: ADME, organism-based, Canis lupus familiaris; set-up: dose 1 mg/kg, route intravenous; conditions: in vivo
Canis familiaris [16] = assay: Clearance in bile duct-cannulated beagle dog at 1 mg/kg, iv administered as 5 mins infusion followed by activated charcoal administration 10 to 420 mins post compound dosing; type: ADME, organism-based, Canis lupus familiaris; set-up: dose 1 mg/kg, route intravenous; conditions: in vivo
[17] = Renal clearance in bile duct-cannulated beagle dog at 1 mg/kg, iv administered as 5 mins infusion; type: ADME, organism-based, Canis lupus familiaris, Kidney; set-up: dose 1 mg/kg, route intravenous; conditions: in vivo
Canis familiaris [18] = assay: Metabolism and biliary clearance in bile duct-cannulated beagle dog at 1 mg/kg, iv administered as 5 mins infusion; type: ADME, organism-based, Canis lupus familiaris; set-up: dose 1 mg/kg, route intravenous; conditions: in vivo
Canis familiaris [19] = assay: Intestinal clearance in bile duct-cannulated beagle dog at 1 mg/kg, iv administered as 5 mins infusion followed by activated charcoal administration 10 to 420 mins post compound dosing; type: ADME, organism-based, Canis lupus familiaris; set-up: dose 1 mg/kg, route intravenous; conditions: in vivo
Canis familiaris [20] = assay: Intestinal clearance in bile duct-cannulated beagle dog at 1 mg/kg, iv administered as 5 mins infusion relative to total clearance; type: ADME, organism-based, Canis lupus familiaris; set-up: dose 1 mg/kg, route intravenous; conditions: in vivo
Canis familiaris [21] = assay: Intestinal clearance in bile duct-cannulated beagle dog at 1 mg/kg, iv administered as 5 mins infusion followed by activated charcoal administration 10 to 420 mins post compound dosing relative to total clearance; type: ADME, organism-based, Canis lupus familiaris; set-up: dose 1 mg/kg, route intravenous; conditions: in vivo
[22] = Drug recovery in urine of bile duct-cannulated beagle dog at 1 mg/kg, iv administered as 5 mins infusion followed by activated charcoal administration 10 to 420 mins post compound measured up to 72 hrs; type: ADME, organism-based, Canis lupus familiaris; set-up: dose 1 mg/kg, route intravenous; conditions: read-out: Drug recovery
[23] = Drug recovery in urine of beagle dog at 1 mg/kg, iv administered as 5 mins infusion measured up to 72 hrs; type: ADME, organism-based, Canis lupus familiaris; set-up: dose 1 mg/kg, route intravenous; conditions: read-out: Drug recovery
[24] = Drug recovery in urine of beagle dog at 5 mg/kg, po measured up to 72 hrs; type: ADME, organism-based, Canis lupus familiaris; set-up: dose 5 mg/kg, route oral; conditions: read-out: Drug recovery
[25] = Drug recovery in bile of bile duct-cannulated beagle dog at 1 mg/kg, iv administered as 5 mins infusion measured up to 72 hrs; type: ADME, organism-based, Canis lupus familiaris; set-up: dose 1 mg/kg, route intravenous; conditions: read-out: Drug recovery
[26] = Drug recovery in feces of bile duct-cannulated beagle dog at 1 mg/kg, iv administered as 5 mins infusion followed by activated charcoal administration 10 to 420 mins post compound measured up to 72 hrs; type: ADME, organism-based, Canis lupus familiaris; set-up: dose 1 mg/kg, route intravenous; conditions: in vivo
[27] = Drug recovery in urine of Sprague-Dawley rat at 2 mg/kg, iv measured up to 168 hrs; type: ADME, organism-based; set-up: dose 2 mg/kg, route intravenous; conditions: read-out: Drug recovery
[28] = Drug recovery in bile of bile duct-cannulated Sprague-Dawley rat at 2 mg/kg, iv measured up to 24 hrs; type: ADME, organism-based; set-up: dose 2 mg/kg, route intravenous; conditions: read-out: Drug recovery
[29] = AUC (0 to infinity) in BCRP-knockout Sprague-Dawley rat at 2 mg/kg, iv; type: ADME, organism-based; set-up: time infinity, dose 2 mg/kg, route intravenous; conditions: plasma
[30] = Volume of distribution at steady state in BCRP-knockout Sprague-Dawley rat at 2 mg/kg, iv; type: ADME, organism-based; set-up: dose 2 mg/kg, route intravenous; conditions: in vivo, read-out: Vdss
[31] = Renal clearance in BCRP-knockout Sprague-Dawley rat at 2 mg/kg, iv; type: ADME, organism-based, Kidney; set-up: dose 2 mg/kg, route intravenous; conditions: in vivo
Rattus norvegicus [32] = assay: Intestinal clearance in BCRP-knockout Sprague-Dawley rat at 2 mg/kg, iv; type: ADME, organism-based; set-up: dose 2 mg/kg, route intravenous; conditions: in vivo
Rattus norvegicus [33] = assay: Metabolism and biliary clearance in BCRP-knockout Sprague-Dawley rat at 2 mg/kg, iv; type: ADME, organism-based, Bile; set-up: dose 2 mg/kg, route intravenous; conditions: in vivo
[34] = Drug recovery in bile of 30 mins activated charcoal pre-treated bile duct-cannulated Sprague-Dawley rat at 2 mg/kg, iv followed by activated charcoal administration 5 to 180 mins post compound dosing measured up to 48 hrs; type: ADME, organism-based; set-up: dose 2 mg/kg, route intravenous; conditions: read-out: Drug recovery
[35] = Drug recovery in feces of bile duct-cannulated Sprague-Dawley rat at 2 mg/kg, iv measured up to 24 hrs; type: ADME, organism-based; set-up: dose 2 mg/kg, route intravenous; conditions: read-out: Drug recovery
[36] = Drug recovery in feces of 30 mins activated charcoal pre-treated bile duct-cannulated Sprague-Dawley rat at 2 mg/kg, iv followed by activated charcoal administration 5 to 180 mins post compound dosing measured up to 48 hrs; type: ADME, organism-based; set-up: dose 2 mg/kg, route intravenous; conditions: read-out: Drug recovery
[37] = Drug recovery in feces of bile duct-cannulated BCRP-knockout Sprague-Dawley rat at 2 mg/kg, iv measured up to 24 hrs; type: ADME, organism-based; set-up: dose 2 mg/kg, route intravenous; conditions: read-out: Drug recovery
[38] = Drug recovery in feces of Sprague-Dawley rat at 30 mg/kg, po measured up to 168 hrs; type: ADME, organism-based; set-up: dose 30 mg/kg, route oral; conditions: read-out: Drug recovery
[39] = Drug recovery in feces of bile duct-cannulated Sprague-Dawley rat at 30 mg/kg, po measured up to 48 hrs; type: ADME, organism-based; set-up: dose 30 mg/kg, route oral; conditions: read-out: Drug recovery
[40] = AUC (0 to infinity) in wild-type bile duct-cannulated Sprague-Dawley rat at 2 mg/kg, iv; type: ADME, organism-based; set-up: time infinity, dose 2 mg/kg, route intravenous; conditions: in vivo
[41] = Cmax in wild-type bile duct-cannulated Sprague-Dawley rat at 2 mg/kg, iv; type: ADME, organism-based; set-up: dose 2 mg/kg, route intravenous; conditions: in vivo
[42] = Clearance in wild-type bile duct-cannulated Sprague-Dawley rat at 2 mg/kg, iv; type: ADME, organism-based; set-up: dose 2 mg/kg, route intravenous; conditions: in vivo
[43] = Volume of distribution at steady state in wild-type bile duct-cannulated Sprague-Dawley rat at 2 mg/kg, iv; type: ADME, organism-based; set-up: dose 2 mg/kg, route intravenous; conditions: in vivo, read-out: Vdss
[44] = Renal clearance in wild-type bile duct-cannulated Sprague-Dawley rat at 2 mg/kg, iv; type: ADME, organism-based, Kidney; set-up: dose 2 mg/kg, route intravenous; conditions: in vivo

COc1ccc(-n2nc(C(N)=O)c3c2[14C](=O)N(c2ccc(N4CCCCC4=O)cc2)CC3)cc1
AUC(0-inf) [1]: 2040 ng·h/mL
half-life [2]: 1.1 h
CL (Rattus norvegicus [3]): 28%
half-life [4]: 2.8 h
Vd [5]: 1.6 L/kg
CL (Rattus norvegicus [6]): 3.67 mL/min/kg
CL (Rattus norvegicus [7]): 14%
CL renal [8]: 13 mL/min/kg
CL (Rattus norvegicus [9]): 11.2 mL/min/kg
CL (Rattus norvegicus [10]): 39%
CL (Rattus norvegicus [11]): 33%
AUC (Canis familiaris [12]): 9300 ng·h/mL
CL (Canis familiaris [13]): 0.667 mL/min/kg
AUC (Canis familiaris [14]): 5600 ng·h/mL
half-life [15]: 1.8 h
CL (Canis familiaris [16]): 0.833 mL/min/kg
CL renal at 5 min [17]: 0.0907 mL/min/kg
CL (Canis familiaris [18]): 0.288 mL/min/kg
CL (Canis familiaris [19]): 0.52 mL/min/kg
CL (Canis familiaris [20]): 43%
CL (Canis familiaris [21]): 62%
dose excreted [22]: 8.1%
dose excreted [23]: 9.9%
dose excreted at 72 h [24]: 8.8%
dose excreted [25]: 12.4%
Drug recovery [26]: 62.7%
dose excreted at 168 h [27]: 51.3%
dose excreted at 24 h [28]: 10.7%
AUC(0-inf) [29]: 2340 ng·h/mL
Vd [30]: 1.8 L/kg
CL renal [31]: 5 mL/min/kg
CL (Rattus norvegicus [32]): 5.67 mL/min/kg
CL (Rattus norvegicus [33]): 4.33 mL/min/kg
dose excreted [34]: 15.7%
dose excreted at 24 h [35]: 21.1%
dose excreted [36]: 28.8%
dose excreted at 24 h [37]: 34.1%
dose excreted at 168 h [38]: 74%
dose excreted at 48 h [39]: 69.8%
AUC(0-inf) [40]: 1410 ng·h/mL
Cmax [41]: 2260 ng/mL
clearance [42]: 23.3 mL/min/kg
Vd [43]: 0.9 L/kg
CL renal [44]: 11.8 mL/min/kg
